Key:
[1] = Phase 1 clinical trial: treatment-emergent adverse events; type: in vivo, human
Experimental: Eligibility criteria included healthy adults (aged 19–45) for the SAD and MAD cohorts, and healthy elderly subjects (aged 65–85) for cohort 11. The participants were excluded if they met the following criteria: serum AST or ALT greater than 60 IU/L, total bilirubin greater than 1.8 mg/dL, creatinine phosphokinase (CPK) levels greater than 405 IU/L, creatinine clearance calculated by the Chronic Kidney Disease Epidemiology Collaboration (CKD-EPI) equation less than 60 mL/min/1.73 m². At the time of randomization, all subjects were required to be free from any clinically significant medical conditions. The study was approved by the Seoul National University Hospital institutional review board and conducted in accordance with the Declaration of Helsinki and Good Clinical Practice guidelines.
Subjects who met the eligibility criteria were admitted to the Seoul National University Hospital Clinical Trial Center one day prior to the first dose administration. […] After administration of the last dose, subjects were discharged 72 h later and visited the outpatient clinic for follow-up on three consecutive days. Pharmacokinetics and safety were monitored until the end of the study, lasting up to 18 days after the last dose.
The primary endpoint was the incidence of TEAEs by dose group. […] Those deemed to have a causal relationship with the drug were classified as ADRs. Dose escalation proceeded under blinded conditions, contingent on the absence of dose-limiting toxicity, as reviewed by a safety review committee.

[2] = system: Parkinson’s disease mouse model; details: cited from earlier work
rat SCI model = experiment: Western blot and GABA ELISA of rat spinal cord tissue; type: in vivo; details: PI 10w
Experimental: Approximately 24 h after drug treatment, primary mouse spinal cord astrocytes or spinal cord tissues were lysed in RIPA buffer (MB030-0050, ROCKLAND) containing protease and phosphatase inhibitors (1861280, Thermo Fisher Scientific). The protein concentration was measured using the Pierce™ BCA Protein Assay Kit (Thermo Fisher Scientific). Each sample was then used separately for Western blot or GABA ELISA analysis. Western blot analysis was performed following established protocols,[73],[74] with 20 μg of spinal cord tissue or 10 μg of astrocyte protein samples were loaded onto SDS-PAGE gels, transferred to PVDF membranes, and blocked with 5% non-fat milk. The membranes were incubated overnight at 4 °C with primary antibodies, including rabbit anti-MAOB (1:1000, Abcam), rabbit anti-BDNF (1:1000, Abcam), mouse anti-TrkB (1:1000, R&D Systems), and rabbit anti-β-actin (1:1000, Cell Signaling Technology). […] The bands were visualized using enhanced chemiluminescence, and band intensity was quantified using ImageJ software. For enzyme-linked immunosorbent assay (ELISA), GABA quantification was performed using an ELISA kit (BA-E-2500, ImmuSmol) according to the manufacturer’s instructions, utilizing 20 μg of protein extracted from spinal cord tissues.

[3] = MAD, healthy elderly, Cohort 11, 120 mg, n = 6
[4] = MAD, young healthy adults, Cohort 7, 60 mg, n = 6
[5] = MAD, young healthy adults, Cohort 8, 120 mg, n = 6
[6] = MAD, young healthy adults, Cohort 9, 240 mg, n = 6
[7] = MAD, young healthy adults, Cohort 10, 480 mg, n = 6
[8] = SAD, young healthy adults, Cohort 1, 30 mg, n = 6
[9] = SAD, young healthy adults, Cohort 2, 60 mg, n = 6
[10] = SAD, young healthy adults, Cohort 3, 120 mg, fasting, n = 6
[11] = SAD, young healthy adults, Cohort 3, 120 mg, fed, n = 5
[12] = SAD, young healthy adults, Cohort 4, 240 mg, n = 6
[13] = SAD, young healthy adults, Cohort 5, 480 mg, n = 6
[14] = SAD, young healthy adults, Cohort 6, 960 mg, n = 6

Question: Which results are given for `CS(=O)(=O)O.C[C@H](NCc1ccc(-c2ccc(C(F)(F)F)cc2)cc1)C(N)=O` [KDS2010, (S)-2-(((4’-Trifluoromethylbiphenyl-4-yl)methyl)amino)propanamide methane-sulfonate]?
Answer: effect of a high-fat meal on the frequency of TEAEs ([1]; 120 mg): did not affect; TEAE: Abdominal discomfort [1, 3]: 2 (33.3) number of subjects (%); TEAE: Constipation [1, 3]: 2 (33.3) number of subjects (%); TEAE: Diarrhea [1, 3]: 2 (33.3) number of subjects (%); TEAE: Dizziness [1, 3]: 1 (16.7) number of subjects (%); TEAE: Hematocrit decreased [1, 3]: 2 (33.3) number of subjects (%); TEAE: Red blood cell count decreased [1, 3]: 1 (16.7) number of subjects (%); TEAEs: Any [1, 3]: 5 (83.3) number of subjects (%); TEAEs: Serious [1, 3]: 0 number of subjects (%); TEAE: Cough [1, 4]: 1 (16.7) number of subjects (%); TEAE: Rhinorrhoea [1, 4]: 1 (16.7) number of subjects (%); TEAEs: Any [1, 4]: 2 (33.3) number of subjects (%); TEAEs: Serious [1, 4]: 0 number of subjects (%); TEAEs: Any [1, 5]: 0 number of subjects (%); TEAEs: Serious [1, 5]: 0 number of subjects (%); TEAE: Hypersomnia [1, 6]: 1 (16.7) number of subjects (%); TEAEs: Any [1, 6]: 1 (16.7) number of subjects (%); TEAEs: Serious [1, 6]: 0 number of subjects (%); TEAE: Conjunctival hyperemia [1, 7]: 1 (16.7) number of subjects (%); TEAE: Oropharyngeal pain [1, 7]: 1 (16.7) number of subjects (%); TEAEs: Any [1, 7]: 2 (33.3) number of subjects (%); TEAEs: Serious [1, 7]: 0 number of subjects (%); TEAEs: Any [1, 8]: 2 (33.3) number of subjects (%); TEAEs: Serious [1, 8]: 0 number of subjects (%); TEAE: Cough [1, 9]: 1 (16.7) number of subjects (%); TEAE: Oropharyngeal pain [1, 9]: 1 (16.7) number of subjects (%); TEAEs: Any [1, 9]: 1 (16.7) number of subjects (%); TEAEs: Serious [1, 9]: 0 number of subjects (%); TEAE: Neutrophil count increased [1, 10]: 1 (16.7) number of subjects (%); TEAEs: Any [1, 10]: 3 (50.0) number of subjects (%); TEAEs: Serious [1, 10]: 0 number of subjects (%); TEAE: Neutrophil count increased [1, 11]: 2 (40.0) number of subjects (%); TEAEs: Any [1, 11]: 3 (60.0) number of subjects (%); TEAEs: Serious [1, 11]: 0 number of subjects (%); TEAE: Dry eye [1, 12]: 1 (16.7) number of subjects (%); TEAE: Neutrophil count increased [1, 12]: 1 (16.7) number of subjects (%); TEAE: Ocular discomfort [1, 12]: 1 (16.7) number of subjects (%); TEAE: Swelling of the eyelid [1, 12]: 1 (16.7) number of subjects (%); TEAE: White blood cell count increased [1, 12]: 1 (16.7) number of subjects (%); TEAEs: Any [1, 12]: 2 (33.3) number of subjects (%); TEAEs: Serious [1, 12]: 0 number of subjects (%); TEAE: Nasal congestion [1, 13]: 1 (16.7) number of subjects (%); TEAE: Rhinorrhoea [1, 13]: 1 (16.7) number of subjects (%); TEAEs: Any [1, 13]: 2 (33.3) number of subjects (%); TEAEs: Serious [1, 13]: 0 number of subjects (%); TEAE: Conjunctival hyperemia [1, 14]: 1 (16.7) number of subjects (%); TEAE: Dizziness [1, 14]: 1 (16.7) number of subjects (%); TEAE: Dry eye [1, 14]: 1 (16.7) number of subjects (%); TEAE: Nasal congestion [1, 14]: 2 (33.3) number of subjects (%); TEAE: Rhinorrhoea [1, 14]: 1 (16.7) number of subjects (%); TEAE: Somnolence [1, 14]: 2 (33.3) number of subjects (%); TEAEs: Any [1, 14]: 4 (66.7) number of subjects (%); TEAEs: Serious [1, 14]: 0 number of subjects (%); number of TEAEs ([1]; all subjects on KDS2010): 56 TEAEs; number of subjects with TEAEs ([1]; all subjects on KDS2010): 25 subjects; proportion of subjects with TEAEs ([1]; all subjects on KDS2010): 37.9%; autonomic nervous system TEAEs ([1]; higher doses (240–960 mg)): TEAEs related to the autonomic nervous system were observed; incidence of TEAEs vs dose ([1]; phase 1): tended to increase with dose; serious adverse events ([1]; phase 1, all cohorts): no serious adverse events; motor impairment [2]: reverse; GABA levels (ELISA) (rat SCI model; SCI + KDS 1 d/Re): significant reduction; MAOB protein level (Western blotting) (rat SCI model; SCI+KDS 1d/Re vs SCI+V): significantly reduced
